# Reference: PMC3112458, “Marked increase in etravirine and saquinavir plasma concentrations during atovaquone/proguanil prophylaxis” (Malaria Journal, 2011)
# Where two headings read alike, the source gives them in different places.
# Tests used:
# [1] = parameters: method as in PMID 17297027; conditions: cited from earlier work
# [2] = parameters: method as in PMID 20299957; conditions: cited from earlier work
# [3] = parameters: method as in PMID 17297027; conditions: cited from earlier work; remark: listed apart in the source
# [4] = system: CYP2C9, 2C19 and P-glycoprotein; parameters: method as in PMID 19725591; conditions: cited from earlier work
# [5] = system: CYP3A; parameters: method as in PMID 19725591; conditions: cited from earlier work
# [6] = 12 hour-PK of anti-retrovirals before and at day 20 of atovaquone/proguanil prophylaxis (HPLC-UV, plasma); assay type: in vivo, human; conditions: for Δ AUC0-12h (during prophylaxis AUC minus pre-prophylaxis AUC): plasma, one HIV patient, day 20 of atovaquone/proguanil 250/100 mg daily vs before prophylaxis
# Procedure: In September 2009, the patient planned to spend a two-week holiday in Kenya. […] Standard malaria prophylaxis with atovaquone/proguanil fixed-dose combination (250/100 mg) was prescribed: one tablet daily starting two days before the journey and ending the treatment seven days after return to Italy. A 12 hour-PK of anti-retrovirals was performed before starting prophylaxis with atovaquone/proguanil (Figure 1). The samples were collected in fasting status following this order: the first sample 12 hours after the last dose of anti-retrovirals (pre-dose); the second sample one hour after breakfast and anti-retrovirals consumption; the following samples at 2, 4, 6 and 12 hours post anti-retrovirals' intake. The second PK for the determination of anti-retrovirals' plasma concentrations during atovaquone/proguanil prophylaxis was collected at day 20 on prophylaxis with the same timing plan (Figure 1). In order to avoid any food interference with the PK results, the same diet was administered in both the PK sampling days.
# [7] = system: P-glycoprotein and MRP1; parameters: method as in PMID 9530286, PMID 9835508; conditions: cited from earlier work
# [8] = system: P450 system; parameters: method as in PMID 9530286, PMID 9835508; conditions: cited from earlier work
smiles,measurement,setting,value
O=C1C(O)=C([C@H]2CC[C@H](c3ccc(Cl)cc3)CC2)C(=O)c2ccccc21 [atovaquone],elimination half-life,[1]; adults,2 to 3 days
same,drug excreted unchanged in the faeces,[1],94%
same,geometric mean ratio (95% confidence interval) of AUC of atovaquone,[2]; patients on atazanavir/ritonavir compared with healthy volunteers,0.54 (0.35-0.83)
same,geometric mean ratio (95% confidence interval) of AUC of atovaquone,[2]; patients on efavirenz compared with healthy volunteers,0.25 (0.16-0.38)
same,geometric mean ratio (95% confidence interval) of AUC of atovaquone,[2]; patients on lopinavir/ritonavir compared with healthy volunteers,0.26 (0.17-0.41)
same,protein-bound,[3],> 99%
Cc1cc(C#N)cc(C)c1Oc1nc(Nc2ccc(C#N)cc2)nc(N)c1Br [etravirine],"inhibition of CYP2C9, 2C19 and P-glycoprotein",[4],mild inhibitor
same,induction of CYP3A,[5],inducer
same,Δ AUC0-12h (during prophylaxis AUC minus pre-prophylaxis AUC),[6],+55%
[H]/N=C(\N/C(=N/[H])Nc1ccc(Cl)cc1)NC(C)C [proguanil],absolute bioavailability,[1],≤ 60%
same,elimination half-life,[1],0.5 to 0.875 days
same,time to peak plasma concentrations,[1],2 to 4 h
same,plasma concentrations lower,"[2]; patients on efavirenz, lopinavir/ritonavir or atazanavir/ritonavir compared with healthy volunteers",38-43%
same,protein-bound,[3],75%
Cc1nnc(C(=O)NC(C)(C)c2nc(C(=O)NCc3ccc(F)cc3)c(O)c(=O)n2C)o1 [raltegravir],Tmax and Cmax in post-prophylaxis versus pre-prophylaxis,"[6]; PK profiles, day 20 of atovaquone/proguanil prophylaxis",earlier
same,Δ AUC0-12h (during prophylaxis AUC minus pre-prophylaxis AUC),[6],-23%
CC(C)(C)NC(=O)[C@@H]1C[C@@H]2CCCC[C@@H]2CN1C[C@@H](O)[C@H](Cc1ccccc1)NC(=O)[C@H](CC(N)=O)NC(=O)c1ccc2ccccc2n1 [saquinavir],interaction with P-glycoprotein and MRP1,[7],substrate and inhibitor
same,induction or inhibition of P450 system,[8],neither an inducer nor an inhibitor
same,Δ AUC0-12h (during prophylaxis AUC minus pre-prophylaxis AUC),[6],+274%
